Patent publication EP4745138A1, “THIO-GLUTARIMIDO ISOINDOLINONE DERIVATIVE, BIFUNCTIONAL PROTEIN DEGRADER CONTAINING SAME, AND USES THEREOF” (Gluetacs Therapeutics (Shanghai) Co., Ltd., priority 2023, dated 2025)
Where two headings read alike, the source gives them in different places.

Legend:
[1] = target: T1, human Cereblon WT GST-tagged protein (Homo sapiens, UniProt Q96SW2); experiment: CRBN-binding affinity, HTRF (CEREBLON BINDING kit); conditions: for inhibition at 0.5 µM: read-out: Inhibition Rate at 0.5 µM (%); for inhibition at 2 µM: read-out: Inhibition Rate at 2 µM (%)
T1 construct: purchased CISBIO 64BDCRBNPEH
T1 sequence (Q96SW2 whole entry): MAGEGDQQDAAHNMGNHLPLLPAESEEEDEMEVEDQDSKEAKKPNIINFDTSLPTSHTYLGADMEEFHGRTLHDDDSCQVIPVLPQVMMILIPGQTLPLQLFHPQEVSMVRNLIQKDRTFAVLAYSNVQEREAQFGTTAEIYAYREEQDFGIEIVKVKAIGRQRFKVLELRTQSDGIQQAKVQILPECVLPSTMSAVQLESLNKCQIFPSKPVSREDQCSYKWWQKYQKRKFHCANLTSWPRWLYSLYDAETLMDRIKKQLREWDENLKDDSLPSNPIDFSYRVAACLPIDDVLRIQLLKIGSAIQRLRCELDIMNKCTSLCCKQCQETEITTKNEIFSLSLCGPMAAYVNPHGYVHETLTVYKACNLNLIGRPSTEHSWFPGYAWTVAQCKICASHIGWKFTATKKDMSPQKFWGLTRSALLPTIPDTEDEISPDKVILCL
Outline: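 Binding to GST-tagged Cereblon was probed by HTRF tracer displacement (thalidomide-red acceptor, anti-GST Eu donor), with compounds present at final 2 µM and 0.5 µM.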

[2] = tested on: Jurkat; experiment: Tumor cell proliferation inhibition (CellTiter-Meiluncell Luminescent Cell Viability Assay); conditions: Homo sapiens, 96 hours, Table I-5, designed based on the IRAK4 inhibitors, read-out: Inhibitory activity (IC50, nM) Jurkat
Method: The tumor cells used herein were cultured in a cell culture medium listed in table 3 at 37°C in an incubator with 5% CO2. Prior to experimentation, all cell lines used were correctly identified by STR profiling, and tested negative for mycoplasma contamination using a mycoplasma detection kit through routine screenings. Table 3. Tumor cells and cell culture medium used in the present disclosure
The IC50 values of the compounds of the present disclosure (including the compounds in Table 1, Table 2, and Examples) were determined using the CellTiter-Meiluncell Luminescent Cell Viability Assay Kit from Dalian Meilun Biotech Co., Ltd. The detailed procedure is as follows: Tumor cells were seeded in 96-well cell culture plates at the densities specified in Table 4. On the following day, the test compounds of the present disclosure were subjected to serial dilution. […] Subsequently, 0.5 µL of the test compound dilution was transferred into the 96-well plate containing the cells, with each well containing 100 µL of cell culture medium. […] Into the 96-well plate, the diluted test compounds and corresponding detection reagents were added, resulting in final test compound concentrations of 500 nM and 10 nM, respectively. The experimental procedure is described below using the diluted 2 µM test compound as an example.
0.5 µL of the aforementioned diluted compound of the present disclosure (including the compounds in Table 1, Table 2, and Examples) was added to the seeded cells in 100 µL of medium, yielding a final test compound concentration of 10 nM. After the cells were treated with the compounds of the present disclosure for a specified period, the cell viability assay reagent was added to the culture medium according to the kit's instructions to determine cell viability. […] All controls were treated using the same procedure as the compounds of the present disclosure. […] Seeding protocol and treatment time for tumor cells

[3] = tested on: MM.1S; experiment: as above; type: cell-based; conditions: Homo sapiens, MM1.S, MM.1S, 96 hours; for inhibition at 0.01 µM: 10 nM, read-out: Inhibition Rate at 10 nM (%); for inhibition at 0.5 µM: 500 nM, read-out: Inhibition Rate at 500 nM (%)
Outline: (§1)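 Following overnight seeding, tumor cells received serial compound dilutions to final levels that included 10 nM and 500 nM. Viability was assessed by luminescence at the end of the specified exposure time. Cultures were kept at 37°C with 5% CO2.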

[4] = tested on: SW620; experiment: as above; type: cell-based; conditions: Homo sapiens, 96 hours, Table I-6, IRAK4 inhibitors
Outline: as §1

[5] = tested on: JEKO-1; experiment: as above; type: cell-based; conditions: Homo sapiens, 96 hours; for inhibition at 0.01 µM: 10 nM, read-out: Inhibition Rate at 10 nM (%); for inhibition at 0.5 µM: 500 nM, read-out: Inhibition Rate at 500 nM (%)
Outline: as §1

[6] = tested on: MV-4-11; experiment: as above; type: cell-based; conditions: Homo sapiens, 96 hours; for inhibition at 0.01 µM: MV4-11, 10 nM, read-out: Inhibition Rate at 10 nM (%); for inhibition at 0.5 µM: MV4-11, 500 nM, read-out: Inhibition Rate at 500 nM (%)
Outline: as §1

[7] = target: T2, IRAK4 (Homo sapiens, UniProt Q9NWZ3); experiment: Western blot, target protein degradation in hPBMC Cell; type: cell-based; conditions: substrate protein remaining %, treated at 50 nM and 500 nM, 24 hours
T2 construct: endogenous in cells; host or cells: hPBMC
T2 sequence (Q9NWZ3 whole entry): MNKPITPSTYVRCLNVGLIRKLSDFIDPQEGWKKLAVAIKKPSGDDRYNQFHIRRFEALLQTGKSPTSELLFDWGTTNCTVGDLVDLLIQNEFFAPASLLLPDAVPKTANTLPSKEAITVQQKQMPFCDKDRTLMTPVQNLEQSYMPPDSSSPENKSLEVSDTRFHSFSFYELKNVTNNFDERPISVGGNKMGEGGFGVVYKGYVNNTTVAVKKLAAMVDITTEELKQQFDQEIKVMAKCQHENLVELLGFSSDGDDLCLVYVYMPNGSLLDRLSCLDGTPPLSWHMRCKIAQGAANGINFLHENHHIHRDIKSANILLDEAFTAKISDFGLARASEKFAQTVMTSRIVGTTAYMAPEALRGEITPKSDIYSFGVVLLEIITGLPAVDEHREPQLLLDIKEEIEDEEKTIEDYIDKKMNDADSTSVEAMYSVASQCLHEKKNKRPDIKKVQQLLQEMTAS
Method: (§2) Conventional Western blot assay was performed to evaluate the effects of the compounds of the present disclosure on the expression of target proteins in cells.
(§3) (1) Cell Seeding and Protein Harvesting: The selected cells were processed according to the cell seeding procedure and protein harvesting procedure in Table II-2. Table II-2 Cell Seeding and Protein Harvesting Procedures
(§4) (2) To the collected supernatant, 5X SDS sample loading buffer was added, followed by denaturation at 95°C for 5 minutes. The denatured samples were then separated by SDS-PAGE electrophoresis on a polyacrylamide gel. Proteins were transferred to a nitrocellulose membrane (0.45 µm NC membrane), blocked with blocking buffer at room temperature for 1 hour, and subjected to antibody incubation and development procedures according to the antibody manufacturer's instructions (Cell Signaling Technology).
(§5) Half-Maximal Degradation Concentration value (the drug concentration required for degrading proteins by 50%, abbreviated as DC50) reads method: comparing the grayscale values of Western blot bands from drug-treated samples with those from blank DMSO-treated controls, and identifying the drug concentration range at which the grayscale value is half that of the DMSO-treated control bands.
(§6) DC50 values can be calculated using ImageJ software to measure grayscale values of Western blot bands from drug-treated samples. The concentration-response curve is fitted to estimate the drug concentration corresponding to half the grayscale value.
(§7) Target protein remaining (%) refers to the percentage of target protein remaining in cells after treatment with protein degrader compounds.
(§8) Calculation method for target protein remaining (%): Use ImageJ software to measure grayscale values of Western blot bands from drug (protein degrader)-treated samples. The grayscale value of drug-treated bands is divided by that of internal control protein bands, and the resulting quotient is normalized to obtain the relative percentage of remaining target protein after protein degrader treatment. Target protein degradation rate(%) = 1−target protein remaining(%). [formula]

[8] = target: T3, BRM (Homo sapiens, UniProt P51531); experiment: Western blot, target protein degradation in Molt-4 Cell; type: cell-based; conditions: substrate protein remaining %, treated at 500 nM and 50 nM, 24 hours
T3 construct: endogenous in cells; host or cells: Molt-4
T3 sequence (P51531 whole entry): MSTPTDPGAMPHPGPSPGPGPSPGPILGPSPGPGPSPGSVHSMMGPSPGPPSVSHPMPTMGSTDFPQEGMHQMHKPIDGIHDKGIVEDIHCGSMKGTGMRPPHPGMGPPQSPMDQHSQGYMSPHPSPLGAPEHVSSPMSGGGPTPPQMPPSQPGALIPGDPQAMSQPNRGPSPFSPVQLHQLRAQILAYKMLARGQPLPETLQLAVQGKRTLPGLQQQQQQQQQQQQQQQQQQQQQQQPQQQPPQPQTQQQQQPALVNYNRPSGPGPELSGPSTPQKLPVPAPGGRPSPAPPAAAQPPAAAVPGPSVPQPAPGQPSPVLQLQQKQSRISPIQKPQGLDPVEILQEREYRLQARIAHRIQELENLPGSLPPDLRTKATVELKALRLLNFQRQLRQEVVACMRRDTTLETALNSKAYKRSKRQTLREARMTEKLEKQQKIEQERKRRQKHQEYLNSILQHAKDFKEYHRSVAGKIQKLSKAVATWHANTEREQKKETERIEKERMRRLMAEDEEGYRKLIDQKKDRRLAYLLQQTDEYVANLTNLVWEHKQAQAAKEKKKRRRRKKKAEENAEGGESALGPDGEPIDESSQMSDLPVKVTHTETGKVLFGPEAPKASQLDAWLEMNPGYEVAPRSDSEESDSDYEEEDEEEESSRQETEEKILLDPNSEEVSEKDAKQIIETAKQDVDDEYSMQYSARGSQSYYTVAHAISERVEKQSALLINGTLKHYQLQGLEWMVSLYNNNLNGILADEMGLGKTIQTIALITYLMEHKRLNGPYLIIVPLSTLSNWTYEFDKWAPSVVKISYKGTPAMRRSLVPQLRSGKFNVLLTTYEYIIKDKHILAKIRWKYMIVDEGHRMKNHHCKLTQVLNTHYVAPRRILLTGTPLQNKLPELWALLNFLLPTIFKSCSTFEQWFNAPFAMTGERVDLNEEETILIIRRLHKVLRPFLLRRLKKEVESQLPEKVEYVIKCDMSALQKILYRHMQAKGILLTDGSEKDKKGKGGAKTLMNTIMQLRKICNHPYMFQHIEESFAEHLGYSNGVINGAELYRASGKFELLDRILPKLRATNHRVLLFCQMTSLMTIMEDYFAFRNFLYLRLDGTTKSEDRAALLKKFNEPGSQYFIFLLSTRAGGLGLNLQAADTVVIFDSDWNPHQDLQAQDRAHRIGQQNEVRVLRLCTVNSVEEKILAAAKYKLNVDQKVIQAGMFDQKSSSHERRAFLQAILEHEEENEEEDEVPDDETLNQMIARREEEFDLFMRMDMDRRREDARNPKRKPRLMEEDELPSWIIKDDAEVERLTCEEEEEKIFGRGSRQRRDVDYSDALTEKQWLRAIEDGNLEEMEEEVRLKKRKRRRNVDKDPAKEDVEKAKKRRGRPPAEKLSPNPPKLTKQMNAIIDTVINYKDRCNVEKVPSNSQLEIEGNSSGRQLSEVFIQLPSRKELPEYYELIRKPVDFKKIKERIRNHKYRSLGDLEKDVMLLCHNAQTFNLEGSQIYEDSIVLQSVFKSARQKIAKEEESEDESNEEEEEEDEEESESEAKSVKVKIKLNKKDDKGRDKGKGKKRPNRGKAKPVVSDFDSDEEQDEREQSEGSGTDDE
Method: as §2, §3, §4, §5
(§9) DC50 values can be calculated using ImageJ software to measure grayscale values of Western blot bands from drug-treated samples. […]

[9] = target: T4, BRG1 (Homo sapiens, UniProt P51532); experiment: as above; type: cell-based; conditions: substrate protein remaining %, treated at 500 nM and 50 nM, 24 hours
T4 construct: endogenous in cells; host or cells: Molt-4
T4 sequence (P51532 whole entry): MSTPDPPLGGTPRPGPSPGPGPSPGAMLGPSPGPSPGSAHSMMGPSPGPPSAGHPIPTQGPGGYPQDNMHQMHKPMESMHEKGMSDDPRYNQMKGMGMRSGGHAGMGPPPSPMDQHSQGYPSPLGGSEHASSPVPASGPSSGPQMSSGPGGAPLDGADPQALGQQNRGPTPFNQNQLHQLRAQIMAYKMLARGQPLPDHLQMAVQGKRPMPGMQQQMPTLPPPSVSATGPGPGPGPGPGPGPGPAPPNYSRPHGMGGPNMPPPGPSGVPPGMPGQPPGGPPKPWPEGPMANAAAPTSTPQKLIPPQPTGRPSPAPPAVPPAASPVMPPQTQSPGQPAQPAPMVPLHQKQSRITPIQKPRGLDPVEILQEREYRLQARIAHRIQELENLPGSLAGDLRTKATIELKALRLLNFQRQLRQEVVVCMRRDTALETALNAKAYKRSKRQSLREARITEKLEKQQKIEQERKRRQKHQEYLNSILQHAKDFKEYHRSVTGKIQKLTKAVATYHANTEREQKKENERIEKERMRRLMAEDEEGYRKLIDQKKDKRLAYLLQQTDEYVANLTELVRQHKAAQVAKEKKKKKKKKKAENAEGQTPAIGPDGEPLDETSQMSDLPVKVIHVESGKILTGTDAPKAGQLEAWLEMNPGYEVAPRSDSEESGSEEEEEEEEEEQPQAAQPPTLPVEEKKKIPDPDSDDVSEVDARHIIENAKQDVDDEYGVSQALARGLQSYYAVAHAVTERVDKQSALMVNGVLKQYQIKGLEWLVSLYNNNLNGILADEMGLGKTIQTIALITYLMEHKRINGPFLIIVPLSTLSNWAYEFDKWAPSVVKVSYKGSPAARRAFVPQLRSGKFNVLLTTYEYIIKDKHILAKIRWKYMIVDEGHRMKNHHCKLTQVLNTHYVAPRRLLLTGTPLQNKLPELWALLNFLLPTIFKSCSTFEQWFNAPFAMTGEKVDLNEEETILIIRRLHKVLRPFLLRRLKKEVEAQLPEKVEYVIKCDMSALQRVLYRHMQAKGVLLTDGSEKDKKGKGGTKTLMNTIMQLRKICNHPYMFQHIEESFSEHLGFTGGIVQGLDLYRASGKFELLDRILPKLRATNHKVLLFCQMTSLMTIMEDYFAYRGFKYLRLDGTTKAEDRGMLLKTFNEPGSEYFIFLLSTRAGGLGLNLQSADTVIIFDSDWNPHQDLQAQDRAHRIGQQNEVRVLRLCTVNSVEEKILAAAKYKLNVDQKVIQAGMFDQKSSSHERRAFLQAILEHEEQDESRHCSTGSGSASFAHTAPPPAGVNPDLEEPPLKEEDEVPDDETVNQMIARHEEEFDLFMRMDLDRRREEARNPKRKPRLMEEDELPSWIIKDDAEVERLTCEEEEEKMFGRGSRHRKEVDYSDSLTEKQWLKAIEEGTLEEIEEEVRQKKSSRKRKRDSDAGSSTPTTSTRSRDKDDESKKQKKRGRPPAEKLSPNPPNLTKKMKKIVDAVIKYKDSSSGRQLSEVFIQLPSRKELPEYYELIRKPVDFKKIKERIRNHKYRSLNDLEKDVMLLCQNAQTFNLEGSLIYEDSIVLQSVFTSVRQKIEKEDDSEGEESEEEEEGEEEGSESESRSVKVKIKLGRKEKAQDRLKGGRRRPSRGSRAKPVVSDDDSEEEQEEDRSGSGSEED
Method: as §2, §3, §4, §5, §9

[10] = target: T5, CDK2 (Homo sapiens, UniProt P24941); experiment: Western blot, target protein degradation in hPBMC Cell; type: cell-based; conditions: treated at 50 nM and 500 nM, 24 hours
T5 construct: the expression of target proteins in cells; endogenous in cells; host or cells: hPBMC
Method: as §2, §3, §4, §5, §6, §7, §8

[11] = Table I-8, SMARCA2/4 inhibitors

| SMILES | inhibition at 0.5 µM [1] [%] | inhibition at 2 µM [1] [%] | Degradation of substrate protein CDK2 [10] | inhibition at 0.01 µM ([6]; Table I-13, CDK2 inhibitors) [%] | inhibition at 0.5 µM ([6]; Table I-13, CDK2 inhibitors) [%] | inhibition at 0.01 µM ([3]; Table I-13, CDK2 inhibitors) [%] | inhibition at 0.5 µM ([3]; Table I-13, CDK2 inhibitors) [%] | other results |
| --- | --- | --- | --- | --- | --- | --- | --- | --- |
| COc1cc2nn(C3CCN(Cc4cccc5c4CN(C4CCC(=O)NC4=O)C5=S)CC3)cc2cc1NC(=O)c1cccc(C(F)(F)F)n1 (stereo not shown) [GT-04950, N-(2-(1-((2-(2,6-dioxopiperidin-3-yl)-1-thioxoisoindolin-4-yl)methyl)piperidin-4-yl)-6-methoxy-2H-indazol-5-yl)-6-(trifluoromethyl)picolinamide] | 40 to 53 | 60 to 80 | – | – | – | – | – | IC50 [2]: 500 to 1000 nM; IC50 ([3]; Table I-5, designed based on the IRAK4 inhibitors, read-out: Inhibitory activity (IC50, nM) MM.1S): 100 to 500 nM |
| O=C1CCC(N2Cc3cc(CN4CCC(n5cc(NC(=O)c6coc(-c7ccnc(NCC(F)(F)F)c7)n6)c(C(F)F)n5)CC4)ccc3C2=S)C(=O)N1 (stereo not shown) [GT-05292, N-(3-(difluoromethyl)-1-(1-((2-(2,6-dioxopiperidin-3-yl)-1-thioxoisoindolin-5-yl)methyl)piperidin-4-yl)-1H-pyrazol-4-yl)-2-(2-((2,2,2-trifluoroethyl)amino)pyridin-4-yl)oxazole-4-carboxamide] | 20 to 30 | 60 to 80 | – | – | – | – | – | inhibition at 0.01 µM ([4]; SW-620, 10 nM, read-out: Inhibition Rate at 10 nM (%)): 70 to 80%; inhibition at 0.5 µM ([4]; SW-620, 500 nM, read-out: Inhibition Rate at 500 nM (%)): 80 to 100%; inhibition at 0.01 µM ([5]; Table I-6, IRAK4 inhibitors): 30 to 40%; inhibition at 0.5 µM ([5]; Table I-6, IRAK4 inhibitors): 80 to 100%; inhibition at 0.01 µM ([6]; Table I-6, IRAK4 inhibitors): 80 to 100%; inhibition at 0.5 µM ([6]; Table I-6, IRAK4 inhibitors): 80 to 100%; inhibition at 0.01 µM ([3]; Table I-6, IRAK4 inhibitors): 50 to 60%; inhibition at 0.5 µM ([3]; Table I-6, IRAK4 inhibitors): 80 to 100%; Degradation of substrate protein IRAK4 [7]: A (0% ≤ substrate protein remaining % ≤ 80%) |

Second part, led by results:

| inhibition at 0.5 µM [1] [%] | inhibition at 2 µM [1] [%] | Degradation of substrate protein CDK2 [10] | SMILES | inhibition at 0.01 µM ([6]; Table I-13, CDK2 inhibitors) [%] | inhibition at 0.5 µM ([6]; Table I-13, CDK2 inhibitors) [%] | inhibition at 0.01 µM ([3]; Table I-13, CDK2 inhibitors) [%] | inhibition at 0.5 µM ([3]; Table I-13, CDK2 inhibitors) [%] | other results |
| --- | --- | --- | --- | --- | --- | --- | --- | --- |
| 60 to 80 | 80 to 100 | – | Nc1nnc(-c2ccccc2O)cc1N1CCN(Cc2ccc3c(c2)C(=S)N(C2CCC(=O)NC2=O)C3)CC1 (stereo not shown) [GT-08787, 3-(6-((4-(3-amino-6-(2-hydroxyphenyl)pyridazin-4-yl)piperazin-1-yl)methyl)-1-thioxoisoindolin-2-yl)piperidine-2,6-dione] | – | – | – | – | Degradation of substrate protein BRM [8]: A (0% ≤ substrate protein remaining % ≤ 80%); Degradation of substrate protein BRG1 [9]: A (0% ≤ substrate protein remaining % ≤ 80%); inhibition at 0.01 µM [3, 11]: 30 to 40%; inhibition at 0.5 µM [3, 11]: 40 to 50% |
| 60 to 80 | 60 to 80 | Yes | Cc1ccsc1C(=O)n1nc(Nc2ccc(S(=O)(=O)N3CCN(Cc4ccc5c(c4)CN(C4CCC(=O)NC4=O)C5=S)CC3)cc2)nc1N (stereo not shown) [GT-08792, 3-(5-((4-((4-((5-amino-1-(3-methylthiophene-2-carbonyl)-1H-1,2,4-triazol-3-yl)amino)phenyl)sulfony 1)piperazin-1-yl)methyl)-1-thioxoisoindolin-2-yl)piperidine-2,6-dione] | 0 to 5 | 50 to 60 | 10 to 20 | 60 to 70 | – |
| 53 to 60 | 60 to 80 | Yes | Cc1ccsc1C(=O)n1nc(Nc2ccc(S(=O)(=O)N3CCN(Cc4ccc5c(c4)C(=S)N(C4CCC(=O)NC4=O)C5)CC3)cc2)nc1N (stereo not shown) [GT-08798, 3-(6-((4-((4-((5-amino-1-(3-methylthiophene-2-carbonyl)-1H-1,2,4-triazol-3-yl)amino)phenyl)sulfony 1)piperazin-1-yl)methyl)-1-thioxoisoindolin-2-yl)piperidine-2,6-dione] | 20 to 30 | 60 to 70 | 10 to 20 | 50 to 60 | inhibition at 0.01 µM ([5]; Table I-13, CDK2 inhibitors): 10 to 20%; inhibition at 0.5 µM ([5]; Table I-13, CDK2 inhibitors): 60 to 70% |
